≈ marks a conversion by molar mass, not a printed value. Like-named read-outs stand apart in the source and are kept apart here.
Columns and labels:
S. aureus 8810 = assay: Broth microdilution antibacterial assay; format: cell-based, Staphylococcus aureus; settings: for Selectivity index (CC50/IC50): MRC-5 CC50 / S. aureus IC50
Description: (§1) Antibacterial Assay Procedure
(§2) Broth Microdilution Assays
(§3) Media and solutions were autoclaved or sterile filtered prior to use and manipulations were carried out in a laminar flow hood. Antibacterial testing was performed in polypropylene 96 -well flat bottom plates. The minimal inhibitory concentration of blasticidin S ( 1) hydrochloride, P10 (2), and derivatives 15–22 were assessed against Staphylococcus aureus ΔNorA, S. aureus 8810, methicillin-resistant S. aureus (MRSA) ATCC 43300, Enterococcus faecalis ATCC 29212, vancomycin-resistant Enterococcus, Klebsiella pneumoniae ATCC 29665, Pseudomonas aeruginosa, and Acinetobacter baumannii ATCC 17978 using serial dilutions. Doxycycline (Gold Bio) as a positive control and the vehicle as a negative control. Stock solutions of each compound were prepared at 5.12 mg/mL in 50% DMSO/water and serially diluted in 50% DMSO/water to create master plates. From the master plates, 10 μL of each dilution was applied to test plates using a Bravo automated liquid transfer system (Agilent). Bacteria previously grown overnight (37 °C, 120 – 200 RPM), in LB broth were diluted to an OD600 of 0.0 5 in cation-adjusted Mueller-Hinton broth, grown to an OD600 of ~0.5, and diluted to an OD600 of 0.004 in cation-adjusted Mueller-Hinton broth. These diluted cultures were applied to the test plates (190 μL per test well) resulting in final concentrations of the test compounds of 256–2 μg/mL. Growth controls (wells with inoculated media but no vehicle or test compounds) were included to assess any potential toxicity from the vehicle. The plates were incubated at 37 °C for 16–18 h, except for VRE and E. faecalis, which were incubated at 37 °C for 24 h. Inhibition was determined by measuring the optical density at 600 nm (OD600) with a Cytation 3 plate reader (BioTek). The optical density measurements were normalized to the positive and negative controls and the vehicle and growth controls were compared and found to be indistinguishable, indicating no toxicity from the vehicle used. The MIC was the lowest concentration that inhibited >90% of growth. Two biological replicates were performed in duplicate. MIC values are reported […]
(§4) as a range from biological replicates. Inhibition curves were generated using Prism (GraphPad).
(§5) The IC50 values reported in Table 2 are the average of the two biological replicates ± standard […]
(§6) Cytotoxicity Assay Procedure
(§7) Human lung fibroblast cells, MRC -5 (CCL-171), were cultured at 37℃ with 5% CO2 and were plated at 5000 cells/well in a 96 -well plate. Compounds 1, 2, and 15-22 were initially prepared at concentrations of 5.12 mg/mL in a vehicle of 50% DMSO. Dilutions of the compounds (4 – 512 μg/mL) were then prepared in growth medium containing Dulbecco’s modified Eagle’s medium (DMEM) with high glucose, L -glutamine, and sodium pyruvate supplemented with 10% fetal bovine serum (FBS), 1% non -essential amino acids, and 0.1% gentamicin sulfate, and 25mM HEPES. The vehicle (50% DMSO) was also prepared via the sa me dilution series to serve as a control. Growth media was removed from the cells and replaced with the same volume of each compound dilution. Cells were incubated for 24 h , after which CellTiter 96® AQueous One Solution Reagent was added to each well as recommended by the manufacturer’s protocol (Promega CellTiter 96 AQueous One Solution Cell Proliferation Assay) and further incubated for 4 h. After incubation, absorbance was measured at 490 nm on an Infinite M plex multimode microplate reader with i -control Tecan software. Viability was calculated by subtracting media only absorbance values and normalizing to the vehicle control at each concentration. The presented data is one assay performed in triplicate that is representative of multiple trials. Data for the 256 and 512 μg/mL concentrations were removed from analysis due to vehicle toxicity […]
(§8) CC50 concentrations were determined via the ED50 Plus v1.0 software (https://archive.org/details/ed50v10_zip).

[1] = test system: methicillin-resistant S. aureus (MRSA) ATCC 43300; assay: Broth microdilution antibacterial assay; format: cell-based, Staphylococcus aureus; settings: for Selectivity index (CC50/IC50): MRC-5 CC50 / MRSA IC50; for IC50 / MIC: Staphylococcus aureus
Description: as §1, §2, §3, §4, §5, §6, §7, §8

[2] = test system: Acinetobacter baumannii ATCC 17978; assay: Broth microdilution antibacterial assay; format: cell-based; settings: for IC50 / MIC: Acinetobacter baumannii, ATCC17978; for Selectivity index (CC50/IC50): MRC-5 CC50 / A. baumannii IC50
Description: as §1, §2, §3, §4, §5, §6, §7, §8

[3] = test system: Enterococcus faecalis ATCC 29212; assay: Broth microdilution antibacterial assay; format: cell-based; settings: for IC50 / MIC: Enterococcus faecalis; for Selectivity index (CC50/IC50): MRC-5 CC50 / E. faecalis IC50
Description: as §1, §2, §3, §4, §5, §6, §7, §8

[4] = test system: Klebsiella pneumoniae ATCC 29665; assay: Broth microdilution antibacterial assay; format: cell-based; settings: for IC50 / MIC: Klebsiella pneumoniae, ATCC29665; for Selectivity index (CC50/IC50): MRC-5 CC50 / K. pneumoniae IC50
Description: as §1, §2, §3, §4, §5, §6, §7, §8

Pseudomonas aeruginosa = assay: Broth microdilution antibacterial assay; format: cell-based; settings: for Selectivity index (CC50/IC50): MRC-5 CC50 / P. aeruginosa IC50; for IC50 / MIC: Pseudomonas aeruginosa
Description: as §1, §2, §3, §4, §5, §6, §7, §8

[5] = test system: Staphylococcus aureus ΔNorA; assay: Broth microdilution antibacterial assay; format: cell-based; settings: for Selectivity index (CC50/IC50): MRC-5 CC50 / S. aureus ΔNorA IC50; for IC50 / MIC: Staphylococcus aureus
Description: as §1, §2, §3, §4, §5, §6, §7, §8

[6] = test system: vancomycin-resistant Enterococcus (VRE); assay: Broth microdilution antibacterial assay; format: cell-based; settings: for IC50 / MIC: Enterococcus, VRE; for Selectivity index (CC50/IC50): MRC-5 CC50 / VRE IC50
Description: as §1, §2, §3, §4, §5, §6, §7, §8

in vitro = format: cell-based, human; settings: human; MRC-5 (lung fibroblast); 24 h; one biological replicate (n = 3); read-out: CC50 for human cells
Description: as §4, §5, §6, §7, §8
Figure S41. The effect of compounds on cell viability. The lines represent non -linear regression curves, and error bars represent means ± […]
SD (n=3). […]

Structure (SMILES): CCCNC(=O)[C@H]1O[C@@H](n2ccc(N)nc2=O)C=C[C@@H]1NC(=O)C[C@@H](N)CCN(C)C(=N)N [Compound 17]
- Selectivity index (CC50/IC50) (S. aureus 8810): 16
- IC50 (S. aureus 8810; Staphylococcus aureus, 8810): 3.9 ± 0.1 µg/mL (≈ 8.41 µM)
- MIC (S. aureus 8810; Staphylococcus aureus, 8810): 16 to 32 µg/mL (≈ 34.5 to 69 µM)
- MIC (S. aureus 8810; Staphylococcus aureus, 8810, read-out: Average Activity against S. aureus): 24 µg/mL (≈ 51.8 µM)
- Selectivity index (CC50/IC50) [1]: 8.1
- IC50 [1]: 7.6 ± 0.8 µg/mL (≈ 16.4 µM)
- MIC [1]: 16 to 32 µg/mL (≈ 34.5 to 69 µM)
- MIC ([1]; read-out: Average Activity against MRSA): 24 µg/mL (≈ 51.8 µM)
- IC50 [2]: 39.3 ± 1.9 µg/mL (≈ 84.8 µM)
- MIC [2]: > 256 µg/mL
- Selectivity index (CC50/IC50) [2]: 1.6
- IC50 ([3]; ATCC29212): 9.3 ± 1.7 µg/mL (≈ 20.1 µM)
- MIC ([3]; ATCC29212, 24 h): 16 to 32 µg/mL (≈ 34.5 to 69 µM)
- MIC ([3]; ATCC29212, read-out: Average Activity against E. faecalis): 16 µg/mL (≈ 34.5 µM)
- Selectivity index (CC50/IC50) [3]: 6.6
- IC50 [4]: 44.9 ± 3.2 µg/mL (≈ 96.9 µM)
- MIC [4]: 128 to 256 µg/mL (≈ 276 to 552 µM)
- Selectivity index (CC50/IC50) [4]: 1.4
- Selectivity index (CC50/IC50) (Pseudomonas aeruginosa): 3.2
- IC50 (Pseudomonas aeruginosa): 19.3 ± 1.6 µg/mL (≈ 41.6 µM)
- MIC (Pseudomonas aeruginosa): 64 µg/mL (≈ 138 µM)
- Selectivity index (CC50/IC50) [5]: 3.9
- IC50 [5]: 15.8 ± 1.1 µg/mL (≈ 34.1 µM)
- MIC [5]: 64 to 128 µg/mL (≈ 138 to 276 µM)
- IC50 [6]: 16.8 ± 3.1 µg/mL (≈ 36.2 µM)
- MIC ([6]; 24 h): 64 µg/mL (≈ 138 µM)
- MIC ([6]; read-out: Average Activity against VRE): 64 µg/mL (≈ 138 µM)
- Selectivity index (CC50/IC50) [6]: 3.6
- CC50 at 24 h (in vitro): 61.1 µg/mL (≈ 132 µM)

Structure (SMILES): CNC(=O)[C@H]1O[C@@H](n2ccc(N)nc2=O)C=C[C@@H]1NC(=O)C[C@@H](N)CCN(C)C(=N)N [Compound 15, Methyl amide]
- Selectivity index (CC50/IC50) (S. aureus 8810): 8.9
- IC50 (S. aureus 8810; Staphylococcus aureus, 8810, S. aureus, average of two biological replicates ± S.D., read-out: IC50): 5.9 ± 1.2 µg/mL (≈ 13.5 µM)
- MIC (S. aureus 8810; Staphylococcus aureus, 8810, S. aureus, lowest concentration inhibiting >90% of growth, range from biological replicates, read-out: MIC): 32 µg/mL (≈ 73.5 µM)
- MIC (S. aureus 8810; Staphylococcus aureus, 8810, average MIC, Table S3, read-out: Average Activity against S. aureus): 32 µg/mL (≈ 73.5 µM)
- Selectivity index (CC50/IC50) [1]: 4.0
- IC50 ([1]; MRSA, average of two biological replicates ± S.D., read-out: IC50): 13.3 ± 3.3 µg/mL (≈ 30.5 µM)
- MIC ([1]; MRSA, lowest concentration inhibiting >90% of growth, range from biological replicates, read-out: MIC): 32 to 64 µg/mL (≈ 73.5 to 147 µM)
- MIC ([1]; average MIC, Table S3, read-out: Average Activity against MRSA): 48 µg/mL (≈ 110 µM)
- IC50 ([2]; A. baumannii, average of two biological replicates ± S.D., read-out: IC50): 18.3 ± 5.3 µg/mL (≈ 42 µM)
- MIC ([2]; A. baumannii, lowest concentration inhibiting >90% of growth, range from biological replicates, read-out: MIC): 64 µg/mL (≈ 147 µM)
- Selectivity index (CC50/IC50) [2]: 2.9
- MIC ([3]; ATCC29212, E. faecalis, 24 h, lowest concentration inhibiting >90% of growth, range from biological replicates, read-out: MIC): 16 to 32 µg/mL (≈ 36.7 to 73.5 µM)
- IC50 ([3]; ATCC29212, E. faecalis, average of two biological replicates ± S.D. (18: one biological replicate), read-out: IC50): 13.2 ± 3.6 µg/mL (≈ 30.3 µM)
- MIC ([3]; ATCC29212, average MIC, Table S3, read-out: Average Activity against E. faecalis): 32 µg/mL (≈ 73.5 µM)
- Selectivity index (CC50/IC50) [3]: 4.0
- IC50 ([4]; K. pneumoniae, average of two biological replicates ± S.D., read-out: IC50): 26.4 ± 4.1 µg/mL (≈ 60.6 µM)
- MIC ([4]; K. pneumoniae, lowest concentration inhibiting >90% of growth, range from biological replicates, read-out: MIC): 64 µg/mL (≈ 147 µM)
- Selectivity index (CC50/IC50) [4]: 2.0
- Selectivity index (CC50/IC50) (Pseudomonas aeruginosa): 2.6
- MIC (Pseudomonas aeruginosa): 64 to 128 µg/mL (≈ 147 to 294 µM)
- IC50 (Pseudomonas aeruginosa; P. aeruginosa, average of two biological replicates ± S.D., read-out: IC50): 20.2 ± 3.4 µg/mL (≈ 46.4 µM)
- Selectivity index (CC50/IC50) [5]: 2.5
- IC50 [5]: 21.1 ± 0.4 µg/mL (≈ 48.5 µM)
- MIC [5]: 128 µg/mL (≈ 294 µM)
- MIC ([6]; average MIC, Table S3, read-out: Average Activity against VRE): 32 µg/mL (≈ 73.5 µM)
- MIC ([6]; 24 h, lowest concentration inhibiting >90% of growth, range from biological replicates, read-out: MIC): 32 µg/mL (≈ 73.5 µM)
- IC50 ([6]; average of two biological replicates ± S.D., read-out: IC50): 13.5 ± 3.6 µg/mL (≈ 31 µM)
- Selectivity index (CC50/IC50) [6]: 3.9
- CC50 at 24 h (in vitro): 52.8 µg/mL (≈ 121 µM)
